Test results as given in ChEMBL document CHEMBL4680201, “Design, synthesis, and pharmacological evaluation of 4- or 6-phenyl-pyrimidine derivatives as novel and selective Janus kinase 3 inhibitors” (Eur J Med Chem, 2020).
Calls of active or inactive are those of the source. The rule behind the calls is not given here.

Columns and labels:
[1] = Cytotoxicity against resting mouse T cells assessed as reduction in cell viability at 10 uM measured after 72 hrs by MTS assay; format: cell-based
[2] = target: T1, Tyrosine-protein kinase JAK3 (Mus musculus) (UniProt Q62137); assay: Inhibition of JAK3 in anti-CD3/-CD28 coated mouse T cells assessed as reduction in IL2-induced STAT5 phosphorylation at 10 uM preincubated for 1 hr followed by IL2 stimulation and measured after 30 mins by Western blot analysis; details: T cell
T1 sequence (whole entry): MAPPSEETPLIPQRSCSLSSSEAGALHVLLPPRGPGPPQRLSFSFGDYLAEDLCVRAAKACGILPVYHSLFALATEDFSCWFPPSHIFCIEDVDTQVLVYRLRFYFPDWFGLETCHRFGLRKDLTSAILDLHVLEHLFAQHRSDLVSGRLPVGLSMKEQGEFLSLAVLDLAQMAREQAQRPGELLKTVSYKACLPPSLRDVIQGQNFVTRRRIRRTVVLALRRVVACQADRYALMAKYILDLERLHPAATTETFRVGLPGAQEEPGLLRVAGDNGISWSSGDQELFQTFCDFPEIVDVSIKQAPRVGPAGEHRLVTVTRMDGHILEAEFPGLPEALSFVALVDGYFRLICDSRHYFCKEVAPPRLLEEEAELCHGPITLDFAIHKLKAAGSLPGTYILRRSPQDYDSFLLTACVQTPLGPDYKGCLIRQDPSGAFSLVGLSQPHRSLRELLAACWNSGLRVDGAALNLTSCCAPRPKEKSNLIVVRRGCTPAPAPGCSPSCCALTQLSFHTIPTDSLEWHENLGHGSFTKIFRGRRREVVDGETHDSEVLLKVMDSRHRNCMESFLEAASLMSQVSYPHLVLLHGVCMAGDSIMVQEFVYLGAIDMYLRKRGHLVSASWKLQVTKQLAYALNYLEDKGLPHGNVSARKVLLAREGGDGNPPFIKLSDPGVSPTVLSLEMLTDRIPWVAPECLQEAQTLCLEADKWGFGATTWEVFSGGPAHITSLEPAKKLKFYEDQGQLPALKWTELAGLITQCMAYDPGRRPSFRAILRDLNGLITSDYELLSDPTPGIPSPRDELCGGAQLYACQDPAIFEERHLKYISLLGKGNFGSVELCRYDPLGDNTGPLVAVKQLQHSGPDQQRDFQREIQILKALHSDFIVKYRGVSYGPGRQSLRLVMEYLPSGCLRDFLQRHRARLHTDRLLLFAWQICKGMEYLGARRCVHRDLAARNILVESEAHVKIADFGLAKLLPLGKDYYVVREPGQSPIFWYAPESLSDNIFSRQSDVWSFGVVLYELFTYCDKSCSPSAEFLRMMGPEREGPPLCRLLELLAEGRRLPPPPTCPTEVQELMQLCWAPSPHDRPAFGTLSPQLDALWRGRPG

[3] = MRT (0 to t) in ICR mouse at 10 mg/kg, iv administered as single dose by LC-MS/MS analysis; format: ADME, organism-based; details: in vivo
[4] = target: T2, BMX (Cytoplasmic tyrosine-protein kinase BMX) (Homo sapiens, UniProt P51813); assay: Inhibition of recombinant human His-tagged full length BMX expressed in baculovirus expression system at 100 nM using Tyr 01 as substrate incubated for 60 mins by Z'-Lyte assay relative to control; details: probe Tyr 01
T2 sequence (P51813 whole entry): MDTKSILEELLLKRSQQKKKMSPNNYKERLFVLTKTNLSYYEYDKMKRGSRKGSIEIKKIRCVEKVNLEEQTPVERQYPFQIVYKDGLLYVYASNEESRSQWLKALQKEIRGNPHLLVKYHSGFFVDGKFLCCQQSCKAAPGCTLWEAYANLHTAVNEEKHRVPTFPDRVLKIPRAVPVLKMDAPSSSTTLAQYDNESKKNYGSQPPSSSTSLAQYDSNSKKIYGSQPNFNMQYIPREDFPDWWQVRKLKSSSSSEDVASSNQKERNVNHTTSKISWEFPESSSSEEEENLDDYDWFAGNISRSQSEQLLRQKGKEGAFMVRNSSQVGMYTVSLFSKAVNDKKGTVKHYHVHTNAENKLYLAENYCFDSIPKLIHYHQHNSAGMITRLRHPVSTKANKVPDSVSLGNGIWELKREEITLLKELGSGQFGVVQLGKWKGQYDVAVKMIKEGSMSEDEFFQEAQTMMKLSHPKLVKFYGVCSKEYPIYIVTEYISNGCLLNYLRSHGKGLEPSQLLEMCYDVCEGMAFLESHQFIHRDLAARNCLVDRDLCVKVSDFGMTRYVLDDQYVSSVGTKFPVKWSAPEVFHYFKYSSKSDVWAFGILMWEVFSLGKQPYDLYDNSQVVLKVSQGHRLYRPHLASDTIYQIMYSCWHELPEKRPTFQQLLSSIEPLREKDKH

[5] = target: Non-receptor tyrosine-protein kinase TYK2 (Homo sapiens, UniProt P29597); assay: Inhibition of recombinant human N-terminal GST-tagged TYK2 cytoplasmic domain (833 to 1187 residues) expressed in baculovirus expression system using TK-substrate-biotin preincubated for 5 mins followed by substrate addition and measured after 30 mins by HTRF assay
Sequence of Non-receptor tyrosine-protein kinase TYK2 (P29597 whole entry, the tested form may be a part): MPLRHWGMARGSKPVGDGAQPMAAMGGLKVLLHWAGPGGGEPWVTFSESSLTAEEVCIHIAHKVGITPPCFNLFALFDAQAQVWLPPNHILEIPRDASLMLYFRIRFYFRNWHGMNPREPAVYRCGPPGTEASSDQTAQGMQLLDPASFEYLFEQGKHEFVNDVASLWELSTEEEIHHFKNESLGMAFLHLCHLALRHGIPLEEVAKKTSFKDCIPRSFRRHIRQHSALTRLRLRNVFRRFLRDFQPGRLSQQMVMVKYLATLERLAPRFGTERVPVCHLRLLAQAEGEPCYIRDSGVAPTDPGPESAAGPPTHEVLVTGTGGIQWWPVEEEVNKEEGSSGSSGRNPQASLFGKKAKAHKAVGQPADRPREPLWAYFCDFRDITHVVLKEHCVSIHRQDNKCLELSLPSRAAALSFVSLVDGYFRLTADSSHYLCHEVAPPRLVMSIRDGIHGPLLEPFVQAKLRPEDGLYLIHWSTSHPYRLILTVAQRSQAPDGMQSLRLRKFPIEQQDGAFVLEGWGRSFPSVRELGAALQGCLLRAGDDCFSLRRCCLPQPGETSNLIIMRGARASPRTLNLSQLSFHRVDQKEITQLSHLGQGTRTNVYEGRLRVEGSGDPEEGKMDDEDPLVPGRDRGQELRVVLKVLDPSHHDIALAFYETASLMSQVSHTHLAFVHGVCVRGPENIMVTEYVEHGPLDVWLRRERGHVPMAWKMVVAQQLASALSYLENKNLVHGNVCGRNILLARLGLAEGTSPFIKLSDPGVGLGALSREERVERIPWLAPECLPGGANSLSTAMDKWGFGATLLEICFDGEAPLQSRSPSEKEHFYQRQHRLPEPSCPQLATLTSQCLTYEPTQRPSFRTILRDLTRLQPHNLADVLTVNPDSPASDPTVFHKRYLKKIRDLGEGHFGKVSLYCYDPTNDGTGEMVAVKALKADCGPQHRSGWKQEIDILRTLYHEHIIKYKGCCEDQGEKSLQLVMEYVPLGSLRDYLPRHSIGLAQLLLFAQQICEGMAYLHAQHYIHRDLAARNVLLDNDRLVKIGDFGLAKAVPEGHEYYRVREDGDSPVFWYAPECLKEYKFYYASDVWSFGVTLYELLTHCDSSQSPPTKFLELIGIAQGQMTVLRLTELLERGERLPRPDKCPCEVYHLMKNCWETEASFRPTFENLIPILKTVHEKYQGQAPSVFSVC

[6] = target: Tyrosine-protein kinase JAK1 (Homo sapiens, UniProt P23458); assay: Inhibition of recombinant human GST-tagged JAK1 cytoplasmic domain (866 to 1154 residues) expressed in baculovirus expression system using TK-substrate-biotin preincubated for 5 mins followed by substrate addition and measured after 30 mins by HTRF assay
Sequence of Tyrosine-protein kinase JAK1 (P23458 whole entry, the tested form may be a part): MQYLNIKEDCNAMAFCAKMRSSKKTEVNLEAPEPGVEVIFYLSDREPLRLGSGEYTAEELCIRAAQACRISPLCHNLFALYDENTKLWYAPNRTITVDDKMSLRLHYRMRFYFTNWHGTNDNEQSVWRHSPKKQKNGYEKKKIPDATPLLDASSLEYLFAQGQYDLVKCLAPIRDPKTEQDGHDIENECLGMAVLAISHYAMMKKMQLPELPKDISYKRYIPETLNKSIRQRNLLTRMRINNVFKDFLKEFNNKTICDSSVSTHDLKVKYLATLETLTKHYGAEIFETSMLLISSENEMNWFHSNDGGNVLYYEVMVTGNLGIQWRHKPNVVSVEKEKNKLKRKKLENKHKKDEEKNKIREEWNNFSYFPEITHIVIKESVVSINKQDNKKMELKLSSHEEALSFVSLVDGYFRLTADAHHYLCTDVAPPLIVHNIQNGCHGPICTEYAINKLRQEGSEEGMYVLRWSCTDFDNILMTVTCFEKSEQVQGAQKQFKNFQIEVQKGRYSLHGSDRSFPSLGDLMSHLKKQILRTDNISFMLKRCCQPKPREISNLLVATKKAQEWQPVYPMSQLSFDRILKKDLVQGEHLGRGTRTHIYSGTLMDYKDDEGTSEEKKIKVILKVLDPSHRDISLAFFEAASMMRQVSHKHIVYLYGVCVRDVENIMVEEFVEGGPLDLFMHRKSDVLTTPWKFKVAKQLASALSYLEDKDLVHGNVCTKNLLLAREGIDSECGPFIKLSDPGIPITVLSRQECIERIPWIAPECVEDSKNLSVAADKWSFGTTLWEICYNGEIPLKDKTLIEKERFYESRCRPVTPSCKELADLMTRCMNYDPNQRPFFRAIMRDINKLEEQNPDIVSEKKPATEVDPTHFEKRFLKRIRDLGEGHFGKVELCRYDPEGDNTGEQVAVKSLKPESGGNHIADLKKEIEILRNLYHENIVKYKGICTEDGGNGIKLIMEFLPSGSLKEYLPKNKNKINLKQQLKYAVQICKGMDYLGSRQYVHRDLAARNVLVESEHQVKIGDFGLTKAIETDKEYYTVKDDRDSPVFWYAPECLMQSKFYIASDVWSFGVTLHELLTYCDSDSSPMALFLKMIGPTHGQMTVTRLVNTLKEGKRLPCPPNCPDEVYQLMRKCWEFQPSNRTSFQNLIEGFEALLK

[7] = test system: Mus musculus; assay: Immunosuppressive activity in Balb/c mouse model of oxazolone-induced delayed type hypersensitivity assessed as appearance of well structured tissue architecture at 30 mg/kg, po measured after 7 days by H and E staining based histopathological analysis; format: functional, organism-based; details: time 7.0 day
[8] = Apparent volume of distribution in ICR mouse at 30 mg/kg, po administered as single dose via gavage by LC-MS/MS analysis; format: ADME, organism-based; details: in vivo
[9] = test system: RAW264.7; assay: Cytotoxicity against mouse RAW264.7 cells assessed as reduction in cell viability at 10 uM measured after 72 hrs by MTS assay; format: cell-based; details: raw264.7, 72 h
[10] = Plasma clearance in ICR mouse at 10 mg/kg, iv administered as single dose by LC-MS/MS analysis; format: ADME, organism-based; details: in vivo
[11] = target: ERBB2 (Receptor tyrosine-protein kinase erbB-2) (Homo sapiens, UniProt P04626); assay: Inhibition of His-tagged human recombinant ERBB2 (676 to 1255 residues) expressed in baculovirus expression system at 100 nM using Tyr 06 as substrate preincubated for 1 hr in presence of ATP by Z'-LYTE assay relative to control; details: probe Tyr 06
Sequence of ERBB2 (Receptor tyrosine-protein kinase erbB-2) (P04626 whole entry, the tested form may be a part): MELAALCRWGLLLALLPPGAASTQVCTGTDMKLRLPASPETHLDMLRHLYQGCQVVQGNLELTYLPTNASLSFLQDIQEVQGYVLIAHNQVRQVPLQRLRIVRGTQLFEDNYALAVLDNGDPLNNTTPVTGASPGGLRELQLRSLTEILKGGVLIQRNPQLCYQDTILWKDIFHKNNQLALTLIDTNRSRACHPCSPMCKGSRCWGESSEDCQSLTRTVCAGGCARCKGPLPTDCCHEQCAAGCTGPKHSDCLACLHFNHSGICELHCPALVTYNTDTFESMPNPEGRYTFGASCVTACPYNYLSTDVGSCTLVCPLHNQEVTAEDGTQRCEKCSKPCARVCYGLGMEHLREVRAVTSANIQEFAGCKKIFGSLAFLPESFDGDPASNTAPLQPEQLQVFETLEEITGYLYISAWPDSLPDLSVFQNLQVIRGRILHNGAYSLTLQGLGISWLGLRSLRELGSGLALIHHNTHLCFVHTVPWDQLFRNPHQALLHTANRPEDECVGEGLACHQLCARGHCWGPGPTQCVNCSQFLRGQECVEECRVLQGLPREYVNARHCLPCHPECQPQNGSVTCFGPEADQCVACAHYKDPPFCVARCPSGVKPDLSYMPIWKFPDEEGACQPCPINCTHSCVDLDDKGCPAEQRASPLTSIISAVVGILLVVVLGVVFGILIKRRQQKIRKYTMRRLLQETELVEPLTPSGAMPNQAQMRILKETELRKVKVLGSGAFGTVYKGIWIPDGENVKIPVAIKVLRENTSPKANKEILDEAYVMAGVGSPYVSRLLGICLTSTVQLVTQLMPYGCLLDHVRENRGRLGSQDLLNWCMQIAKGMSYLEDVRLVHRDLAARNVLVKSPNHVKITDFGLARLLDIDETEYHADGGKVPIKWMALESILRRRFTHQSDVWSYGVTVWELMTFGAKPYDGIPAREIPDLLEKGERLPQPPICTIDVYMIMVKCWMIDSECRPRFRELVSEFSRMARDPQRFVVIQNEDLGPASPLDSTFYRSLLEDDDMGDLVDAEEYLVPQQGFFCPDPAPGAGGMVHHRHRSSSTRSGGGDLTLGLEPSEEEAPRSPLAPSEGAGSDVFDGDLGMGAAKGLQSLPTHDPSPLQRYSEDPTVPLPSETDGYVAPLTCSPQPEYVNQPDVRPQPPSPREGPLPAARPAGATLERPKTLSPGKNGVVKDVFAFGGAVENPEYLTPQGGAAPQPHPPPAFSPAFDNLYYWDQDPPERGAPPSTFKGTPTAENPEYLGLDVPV

[12] = Cytotoxicity against IL-4-treated mouse T cells assessed as reduction in cell viability at 10 uM measured after 72 hrs by MTS assay; format: cell-based
[13] = Toxicity in Balb/c mouse model of oxazolone-induced delayed type hypersensitivity assessed as change in body weight up to 30 mg/kg, po; format: organism-based; details: in vivo
[14] = Terminal half life in ICR mouse at 10 mg/kg, iv administered as single dose by LC-MS/MS analysis; format: ADME, organism-based; details: in vivo, read-out: beta t1/2 (converted)

inhibition [2]: Active
MRT last [3]: 43.8 min
inhibition at 1 h, 0.1 µM [4]: 3.7%
IC50 [5]: 2.78 µM
IC50 [6]: 1.32 µM
Vz [8]: 220.42 L/kg
CLz/F [10]: 136 mL/min/kg
inhibition at 1 h, 0.1 µM [11]: 19.2%
half-life [14]: 28.2 min
Structure (SMILES): C=CC(=O)Nc1ccc(-c2ccnc(Nc3ccc(N4CCOCC4)cc3)n2)cc1
Activity [1]: Non-Toxic
Activity [7]: Active
Activity [9]: Non-Toxic
Activity [12]: Non-Toxic
Activity [13]: Non-Toxic
